A short description of this series: Human HepG2 cell viability assay in 384 well format. Format: toxicity, cell-based. Also noted: dose 125 nL, time 70.5 hour; concentration not given beside the values. As to conditions: HepG2 cells, read-out: Inhibition.

The text below walks through data of ChEMBL document CHEMBL3507680, “University of Dundee, Gates Library screen for HepG2 cell viability”.

As for `CCc1nc(CN2CCCC(NCc3nc4ccccc4o3)C2)no1` (stereo not drawn), the cytotoxicity at 70.5 h was -1.56%.

`Cn1cc(C2CCCN2C(=O)CCc2cnn(-c3ccccc3)c2)cn1` (stereo not drawn): the cytotoxicity at 70.5 h was -3.27%. To `CC(C)c1noc(CCCC(=O)N2CCN(Cc3cccnc3)CC2)n1` belongs -13%. In the case of `CC(Cn1cccn1)NC(=O)NCCc1cccnc1` (stereo not drawn) it was -8.85%. To `Cc1csc(CCNC(=O)NC(C)Cn2cccn2)n1` (stereo not drawn) belongs 19%.

As for `Cc1cccc(CN(C(=O)NCc2ccccn2)C2CC2)c1`, the cytotoxicity at 70.5 h was -8.28%. In the case of `CC(Cn1cccn1)NC(=O)NCCc1ccsc1` (stereo not drawn) it was 15.4%; in that of `CS(=O)(=O)c1ccc(CNC(=O)Nc2cn[nH]c2)cc1`, -12.4%; in that of `Cn1cc(NS(=O)(=O)c2ccc3c(c2)CCCC3)ccc1=O`, 22.1%. To `CCOc1ccc2c(c1)CN(Cc1nc3c(cnn3C)c(=O)[nH]1)CC2` belongs -4.82%; to `Cc1cc(C2CCCN2Cc2nc3c(cnn3C)c(=O)[nH]2)on1` (stereo not drawn), -8.83%; to `COC(=O)c1ccc(N2CCN(C(=O)c3cnc(C)cn3)C(C)C2)cc1` (stereo not drawn), -11%.

Consider `COC(=O)c1ccc(N2CCN(C(=O)c3cccnc3)C(C)C2)cc1` (stereo not drawn), for which the cytotoxicity at 70.5 h is -4.39%. To `Cc1ccccc1C1CCCN1Cc1nc2c(cnn2C)c(=O)[nH]1` (stereo not drawn) belongs -9.08%; to `CNS(=O)(=O)c1ccc(CNC(=O)Nc2cn[nH]c2)cc1`, -5.63%. In the case of `Cn1ncc2c(=O)[nH]c(CN3CCCC3c3ccsc3)nc21` (stereo not drawn) it was -7.44%. In the case of `CCn1cnnc1C1CCN(C(=O)c2cc(C)c(C)s2)CC1` it was 15.5%; in that of `CCn1cnnc1C1CCN(C(=O)c2cc3c(s2)CCCC3)CC1`, -9.56%; in that of `CC(C)CNC(=O)CN1C=Nc2ccccc2S1(=O)=O`, 20.2%. On to `CCc1c(C(=O)N2CCCN(C(C)=O)CC2)cnn1C(C)(C)C`, for which the cytotoxicity at 70.5 h was -0.109%. To `Cc1cccc(-n2ncc(C(=O)N3CCn4c(C)nnc4C3)c2C)c1` belongs -10.4%. In the case of `CCOc1ccnc(N2CCN(C(=O)c3cccc(C#N)c3)CC2)n1` it was -6.91%; in that of `CC(C)c1nc(C(=O)NCCn2ccnc2)nn1-c1cccc(F)c1`, -14.8%; in that of `Cn1cnc2c1CCN(Cc1noc(-c3ccccc3)n1)C2`, -6.44%. In the case of `Cc1nn(C)c(C)c1C1CCCN1C(=O)CCNc1ncccn1` (stereo not drawn) it was -4.27%; in that of `CC(=O)NCc1ccc(C(=O)N2CCCC2c2cnn(C)c2)o1` (stereo not drawn), -13.1%. For `CCc1ncncc1C(=O)N1CCN(Cc2ccco2)CC1`, the cytotoxicity at 70.5 h is 10.8%. In the case of `Cc1ccc(CC(=O)N2CSCC2C(=O)N(C)Cc2ccco2)o1` (stereo not drawn) it was -12.2%; in that of `CN(Cc1ccco1)C(=O)C1CSCN1C(=O)c1cccnc1` (stereo not drawn), -15.1%; in that of `Cc1cnn(CCNCCCOc2ccccc2)c1`, -7.1%. To `COc1cc(CNC2CCc3nc(C)nn3C2)cc2c1OCCO2` (stereo not drawn) belongs -9%; to `Cc1cc(CN2CCN(CCOc3cccc(C#N)c3)CC2)no1`, 5.03%; to `CCc1nc(C)c(C(=O)NCCNc2cnccn2)s1`, 3.09%.

`Cc1nn(C)c(N2CCOCC2)c1CNC(c1cccs1)C(C)C` (stereo not drawn): the cytotoxicity at 70.5 h worked out at 6.88%. In the case of `CC(NC(=O)CSCC#N)c1ccccc1` (stereo not drawn) it was 6.84%; in that of `CCc1nc(CN2CCOC(Cn3nc(C)nc3C)C2)no1` (stereo not drawn), 3.11%; in that of `O=C(NCC1CCOC1)N1CCN(Cc2ccc3c(c2)CCO3)CC1` (stereo not drawn), -4.97%.

On to `O=C(CCNC(=O)C1CCCC1)NCc1ccccc1Cn1cncn1`, for which the cytotoxicity at 70.5 h is -7.76%. To `CC(NC(=O)c1ccc2c(c1)OCC(=O)N2)c1ccccc1F` (stereo not drawn) belongs 0.146%; to `Cc1nc(COc2cccc(C#N)c2)no1`, 2.53%; to `CN(Cc1ccsc1)C(=O)Nc1cccnc1N1CCCC1`, 23%.

For the compound `CCc1nc(C)c(C(=O)NCCNc2ncccn2)s1`, the cytotoxicity at 70.5 h was -6.37%. To `CC(C)Oc1cccc(CNC(=O)NC(C)(C(=O)O)c2ccco2)c1` (stereo not drawn) belongs -0.448%.

On to `Cc1ccc(C)c(CNC(=O)NC(C)(C(=O)O)c2ccco2)c1` (stereo not drawn), for which the cytotoxicity at 70.5 h came to 2.89%.

As to `Cc1nccn1C1CCCN(C(=O)c2ccc(N3CCCC3)nn2)C1` (stereo not drawn), the cytotoxicity at 70.5 h is -4.33%. In the case of `CN(Cc1cnn(-c2ccccc2)n1)CC1CCCN1c1cccnn1` (stereo not drawn) it was 4.15%; in that of `CC(=O)Nc1nc(C(=O)N2CCCC(n3nc(C)cc3C)C2)cs1` (stereo not drawn), 31.5%. To `Cc1nc(CN2CCCC2c2c(C)nn(C)c2Cl)no1` (stereo not drawn) belongs -1.31%. To `CC(C)c1n[nH]c(C2CN(C(=O)C3=COCC3)CCO2)n1` (stereo not drawn) belongs -3.87%; to `CC(=O)Nc1nc(C(=O)N2CCCC(c3cc(C)[nH]n3)C2)cs1` (stereo not drawn), -0.899%. Take `Cc1noc(NC(=O)c2ccc(Br)s2)n1`: the cytotoxicity at 70.5 h was found to be 24.3%. Consider `O=C(C1COCCO1)N1CCN(Cc2ccc3c(c2)CCO3)CC1` (stereo not drawn), for which the cytotoxicity at 70.5 h stood at 1.06%. To `Cn1ccnc1CN1CCN(CCOc2ccccc2C#N)CC1` belongs 23.6%; to `Cc1cnc2c(S(=O)(=O)NCC3CCS(=O)(=O)C3)cccc2c1` (stereo not drawn), 51.3%.

As for `O=C(NCCc1ccc(Cl)s1)NCc1nnc2n1CCC2`, the cytotoxicity at 70.5 h was 8.18%. To `O=C(NCCN1CCc2ccccc2C1)c1scnc1Cl` belongs -1.52%.

Turning to `CN(CCCOc1ccc(F)cc1)Cc1nc2c(cnn2C)c(=O)[nH]1`, the cytotoxicity at 70.5 h is 4.27%. To `COCCCN(C)Cc1nc2c(cnn2C)c(=O)[nH]1` belongs 42.4%. As to `COc1c(CNC2CCN(c3ncccn3)CC2)c(C(C)C)nn1C`, the cytotoxicity at 70.5 h turned out to be 2.8%. To `COc1c(CNC2CCN(C(=O)C3CC3)CC2)c(C(C)C)nn1C` belongs 0.393%. As to `CCN(CC1CCOC1)C(=O)c1ccccc1NS(=O)(=O)CC` (stereo not drawn), the cytotoxicity at 70.5 h was -3.45%. In the case of `CC(=O)N1CCCN(C(=O)c2cnc3n[nH]c(C)c3c2)CC1` it was 11.1%; in that of `COC(=O)c1ccc(N2CCN(CCC#N)C(C)C2)cc1` (stereo not drawn), 11.4%.

Regarding `COc1c(CNC2CCN(C(C)(C)C)CC2)c(C(C)C)nn1C`, the cytotoxicity at 70.5 h stood at 3.99%. To `Cc1ncc2c(n1)CN(CC(=O)Nc1ccncc1)CC2` belongs 1.41%; to `Cn1cc(CN2CCCN(C(=O)c3ccc4c(c3)COC4)CC2)cn1`, -4.36%.

For the compound `Cc1nccn1C1CCCN(C(=O)c2ccc(N(C)C)nc2)C1` (stereo not drawn), the cytotoxicity at 70.5 h is -7.86%.

Consider `O=C(O)c1cc(S(=O)(=O)Nc2cc(F)ccc2F)cc2c1OCCO2`, for which the cytotoxicity at 70.5 h was -3.33%.

On to `CCc1ncc2c(n1)CN(Cc1nc(-c3ccccn3)no1)CC2`, for which the cytotoxicity at 70.5 h worked out at 33.7%. In the case of `CC(C)c1noc(C(C)N2CCN(Cc3ccsc3)CC2)n1` (stereo not drawn) it was -5.78%; in that of `CCN(CC1CCOC1)C(=O)c1cccnc1N1CCOCC1` (stereo not drawn), 0.841%.

With `CC(=O)N1CCCN(C(=O)NCc2ccccn2)CC1`, the cytotoxicity at 70.5 h was found to be 3.62%. For `CC(C)c1nn(C)c(Cl)c1CNCc1ccc2c(c1)OCCO2`, the cytotoxicity at 70.5 h was 3.82%.
